Patent publication US20260355142A1, “AMORPHOUS OTE[…] COMPOSITIONS AND USES THEREOF AND DOSAGE REGIMENS FOR OTENAPROXESUL” (ANTIBE THERAPEUTICS INC., priority 2022, published 2026)
≈ marks a conversion by molar mass, not a printed value. Entries after “also recorded” stand apart in the source; their conditions may differ.

What was measured:
ALT and AST = assay: Analysis of liver transaminase elevations over the clinical studies; format: in vivo, human
Experimental: These LTEs were detected after the patients had completed their full treatment course.
When liver safety findings are observed, cumulative naproxen metabolite plasma drug exposure over the prescribed treatment period exceeded 4000 μg*hr/mL.

thromboxane B2 = assay: Phase 2b study, plasma thromboxane B2; format: in vivo, human
Experimental: Whole blood samples were taken pre-treatment and on Days 1, 4 and 14 for the measurement of thromboxane B2 as an index of cyclo-oxygenase enzyme inhibition. Thromboxane B2 levels were measured using the Thromboxane B2 Elisa Kit from Cayman Chemical, Ann Arbor Michigan. Instructions provided with the Kit were followed.
Blood samples for measurement of thromboxane concentrations were collected at room temperature in 10 mL red top, no additive Vacutainers. Blood samples were taken approximately 4 hours after dosing and divided into 2 aliquots. The first aliquot (1 mL) was prepared for the measurement of otenaproxesul-derived plasma naproxen concentrations. The second aliquot (2 mL) was further divided into 2 polypropylene tubes for the measurement of plasma thromboxane concentrations.

ALT and/or AST = assay: Phase 2b study, liver transaminase elevations; format: in vivo, human
Experimental: (§1) Study visits occurred on Day 1, Day 4, and Day 14 of the 14-day treatment phase and included WOMAC evaluations, blood samples for thromboxane B2 TXB2 and pharmacokinetic (PK) testing. The safety of otenaproxesul was evaluated through monitoring for adverse events (AEs), changes in physical examinations, vital signs measurements, and clinical laboratory evaluations.
(§2) All patients receiving any amount of study treatment (otenaproxesul or placebo) were included in the safety analysis. Each treatment arm was evaluated separately. In addition to the evaluation and categorization of treatment-emergent adverse events (TEAEs), listings of laboratory test results collected at Baseline and during the study were generated. Descriptive statistics summarizing the changes in those laboratory tests over time were presented.
The majority of otenaproxesul liver associated TEAEs were alanine aminotransferase (ALT) and/or aspartate aminotransferase (AST) liver transaminase elevations. None of these TEAEs were observed during the 14-day treatment period but were captured at the Day 24/Early Termination (ET) follow up assessment.

[1] = Phase 2b study, safety (treatment-emergent adverse events); format: in vivo, human; details: for hypertension or blood pressure increased: 2 patients
Experimental: as §1
Patients were followed for safety for up to 24 days following initiation of treatment. A final visit for safety assessments occurred upon study completion on Day 24 or early termination.
as §2

[2] = Solubility in simulated intestinal fluid; format: physicochemical; details: 0.5 wt % SIF
Text: 1 compared to crystalline otenaproxesul in simulated intestinal fluid (SIF).

[3] = Rat pharmacokinetics of otenaproxesul amorphous dispersion (Example 19); format: in vivo, Rats; details: HED 260 mg once daily
Experimental: Rats were administered five treatment doses of the otenaproxesul amorphous solid dispersion (i.e., exemplary ASD no. 1 (35% drug: 65% polymer by weight)) and a crystalline otenaproxesul control dose. […] One group of rats was administered a human equivalent dose of 208 mg twice daily (416 mg total daily dose). Crystalline otenaproxesul was administered at the no observed adverse effect level (NOAEL) dose equivalent to a human dose of 260 mg once daily.
Pharmacokinetic data was evaluated on M25 plasma naproxen concentrations at 60 minutes post administration, Day 1 M25 plasma exposure (AUC0-24) and Day 4 M25 plasma exposure (AUC0-Last). Assessment of dose proportional characteristics for both M25 plasma concentration and AUC exposure were measured.
The human equivalent dose (HED) is related to the administered rat dose by an allometric scaling formula, for example: HED (mg)=([rat dose in mg/kg×0.16]×65 kg).

[4] = Stability/purity of ASDs by HPLC; format: physicochemical; details: no storage condition given
Experimental: The stability of the exemplary amorphous solid dispersions of the application were evaluated using HPLC and are shown in Tables 14 A and B.
HPLC analyses were performed on a Waters 2695 or Agilent 1200, or equivalent, instrument. The column was an ACE-5 C18 150 mm×4.6 mm, 5 μm or equivalent column. The flow rate was 1.0 mL/min, the injection volume was 10 μL, the column temperature was 25° C., the sample temperature was 5° C. and the wavelength for detection was 254 nm. Two eluents were used which were either (1) A: 1.8 g K2HPO4·3H2O dissolved in 1000 ml of water and pH adjusted to 5.5 using orthophosphoric acid and B: acetonitrile; or (2) A: 1.4 g K2HPO4·3H2O dissolved in 1000 ml of water and pH adjusted to 7.0 with 85% phosphoric acid and B: acetonitrile.

PGE2 = assay: Pharmacodynamics in Beagle dogs, plasma PGE2; format: in vivo; details: 15 mg/kg
Experimental: The pharmacokinetics of five different formulations of otenaproxesul (formerly ATB-346) were evaluated in Beagle dogs. Five groups of dogs (n=3/group) were orally administered their assigned formulations once daily for four days. Blood samples were taken for a full 24-hour PK profile on Day 1 and on Day 4.
Group 1 was administered crystalline otenaproxesul, Group 2 was administered milled crystalline otenaproxesul, Group 3 was administered micro-milled crystalline otenaproxesul, Group 4 was administered exemplary ASD no. 1 (see Example 7A above) and Group 5 was administered exemplary ASD no. 4 (see Example 7A above). Dose administered was 15 mg/kg (human equivalent dose of 525 mg).
Pharmacodynamic assessment of TXB2 and PGE2 plasma concentrations were assessed on: • Day 1, one hour post treatment • Day 1, 12 hours post treatment • Day 4, pre-treatment • Day 4, one hour post treatment • Day 4, 12 hours post treatment.

SMILES: COc1ccc2cc([C@H](C)C(=O)Oc3ccc(C(N)=S)cc3)ccc2c1 [otenaproxesul, (S)-4-carbamothioylphenyl 2-(6-methoxynaphthalen-2-yl) propanoate]
- adverse liver effects (transient elevations of liver transaminases) (ALT and AST; multiple dose 150, 200 or 250 mg for seven days): no observed adverse liver effects
- liver transaminase elevations (ALT and AST; multiple dose 150, 200 or 250 mg, 14 days or less): not detected
- cumulative plasma naproxen exposure at which LTEs are not observed (ALT and AST; over the prescribed treatment): ≤ 4000 µg·h/mL
- cumulative naproxen plasma exposure when liver safety findings are observed (ALT and AST; over the prescribed treatment period): exceeded 4000 μg*hr/mL
- patients with dose-related liver transaminase elevation (ALT and AST; phase 2 study): approximately 10%
- liver transaminase elevations (ALT and AST; single dose 25 mg to 2000 mg (crystalline)): not detected; also recorded: no observed adverse liver effects
- plasma thromboxane B2 levels (thromboxane B2; 150 mg daily): marked reduction in plasma thromboxane B2 levels
- TXB2 levels (thromboxane B2; Day 1, 150, 200, 250 mg): significant suppression of thromboxane B2 levels
- inhibition of TXB2 synthesis (thromboxane B2; Day 4, 150, 200, 250 mg): profound inhibition of thromboxane B2 synthesis
- inhibition of TXB2 synthesis (thromboxane B2; Day 14, 150, 200, 250 mg): profound inhibition of thromboxane B2 synthesis
- patients with treatment-related >3×ULN ALT and/or AST (ALT and/or AST; 150 mg (6/61)): 9.8%
- patients with treatment-related increases in ALT and/or AST (ALT and/or AST; 150 mg (6/61)): 9.8%
- patients with treatment-related >3×ULN ALT and/or AST (ALT and/or AST; 200 mg (9/125)): 7.2%
- patients with treatment-related increases in ALT and/or AST (ALT and/or AST; 200 mg (9/125)): 7.2%
- patients with treatment-related >3×ULN ALT and/or AST (ALT and/or AST; 250 mg (17/132)): 12.9%
- patients with treatment-related increases in ALT and/or AST (ALT and/or AST; 250 mg (17/132)): 12.9%
- hypertension or hypotension events ([1]; 150 mg): No patients
- patients with TEAEs ([1]; 150 mg): 37.7%
- hypotension ([1]; 200 mg, 1 patient): 0.8%
- hypertension or blood pressure increased ([1]; 200 mg): 1.6%
- patients with TEAEs ([1]; 250 mg): 43.9%
- hypertension or blood pressure increased ([1]; 250 mg): 1.5%
- TEAE headache ([1]; all otenaproxesul groups): 5.0%
- TEAE hepatic enzyme increased ([1]; all otenaproxesul groups): 8.2%
- patients with at least 1 TEAE ([1]; all otenaproxesul groups): 40.9%
- gastrointestinal disorder TEAEs ([1]; all otenaproxesul groups, 14-day treatment): 14.5%
- tolerability ([1]; all three doses, 14 days): well tolerated at all three administered doses
- discontinuation due to gastrointestinal TEAEs ([1]; all three treatment arms): none were discontinued due to TEAEs related to gastrointestinal adverse effects
- serum creatinine ([1]; one patient, 200 mg for 14 days, Day 24): 1.5 ×ULN

SMILES: COc1ccc2cc([C@H](C)C(=O)Oc3ccc(C(N)=S)cc3)ccc2c1 [crystalline otenaproxesul]
- solubility at 2 h [2]: 51 µg/mL (≈ 140 µM)
- AUC increase between Day 1 and Day 4 ([3]; female rats): 60%
- AUC increase between Day 1 and Day 4 ([3]; male rats): 30%
- ATB-346 API [4]: 99.45%
- RRT-0.84 [4]: 0.18%
- RRT-0.85 ATB-346-Amide [4]: 0.07%
- RRT-1.10 [4]: 0.25%
- PGE2 inhibition (PGE2; Day 1 12-hour): not maintained
- PGE2 inhibition (PGE2; Day 4 pre-treatment): recovered to a large extent
